From article PMC10480161, “Identification of potent and selective N-myristoyltransferase inhibitors of Plasmodium vivax liver stage hypnozoites and schizonts” (Nature Communications, 2023)
Values joined by “and” are separate entries in the source; they are usually repeats but may differ in a detail not shown here. Equal values may be shown once. Read-outs that look alike come from different tables or passages of the source.

Key:
[1] = target: T1, HsNMT1 (Homo sapiens, UniProt P30419); assay: NMT activity assay (CPM detection of free CoA), HsNMT
T1 sequence (P30419 1-496): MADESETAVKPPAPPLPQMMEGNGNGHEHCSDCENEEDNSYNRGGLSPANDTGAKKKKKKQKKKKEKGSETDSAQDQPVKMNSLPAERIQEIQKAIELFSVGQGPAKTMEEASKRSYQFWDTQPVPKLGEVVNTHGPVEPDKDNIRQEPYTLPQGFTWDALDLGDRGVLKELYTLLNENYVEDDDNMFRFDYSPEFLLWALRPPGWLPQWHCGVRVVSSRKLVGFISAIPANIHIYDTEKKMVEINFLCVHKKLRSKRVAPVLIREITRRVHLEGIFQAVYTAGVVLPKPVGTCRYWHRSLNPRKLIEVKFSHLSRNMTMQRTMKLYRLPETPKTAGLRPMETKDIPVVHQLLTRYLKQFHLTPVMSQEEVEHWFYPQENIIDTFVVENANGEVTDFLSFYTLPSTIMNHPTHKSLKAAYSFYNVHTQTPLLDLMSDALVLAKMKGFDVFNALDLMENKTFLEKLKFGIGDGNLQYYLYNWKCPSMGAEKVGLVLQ

[2] = target: PvNMT (Plasmodium vivax, UniProt A5K1A2); assay: NMT activity assay (CPM detection of free CoA), PvNMT; settings: for SI: enzyme selectivity, HsNMT IC50/PvNMT IC50
[3] = tested on: P. vivax schizonts; assay: P. vivax liver stage assay, schizonts; format: cell-based, Plasmodium vivax; settings: 20 µM; for Number of liverstage Schizonts per well: 8 dpi, listed as Pi4K
Method: We next evaluated the candidate compounds against liver-stage P. vivax (Fig. 5). P. vivax sporozoites were obtained from three independent patient isolates and cultured in primary human hepatocytes from a single donor lot using a 384-well microculture system as described previously. Cells were infected and treated with NMTis at 20 µM beginning day 5 post-infection until day 8 when the infection rates were quantified by fluorescent microscopy.
Accordingly, we applied dose–response curves of all the tested NMTs on parasite isolates 2 and 3 over concentrations up to 20 µM (Fig. 5c, d, Source Data file). We observed similar kinetics for all inhibitors, with a gradual decrease in parasite load upon increasing the drug concentration. […] Nuclei were counted in each well using DAPI staining as a measure of toxicity (Supplementary Fig. 86, Supplementary Source data). We used the phosphatidylinositol 4-kinase inhibitor (PI4Ki), MMV390048, as a positive control for eliminating schizonts[37],[38].
Plasmodium vivax liver stage assays were performed as described previously. Cryopreserved primary human hepatocytes (Cat No. F00995-P) and hepatocyte culture medium (HCM) (InVitroGroTM CP Medium) were obtained from Bioreclamation IVT, Inc., (Baltimore, MD, USA). Briefly, we seeded 384-well plates with primary hepatocytes from a single donor lot at a density of 25,000 cells per well. We then infected the hepatocytes with 14,000 freshly hand-dissected sporozoites per well. Cells were exposed to the compounds at indicated concentrations from day 5 post-infection. We used Pi4K inhibitor MMV390048, at 20 µM, as a positive control to eliminate P. vivax liver schizonts. We then proceeded to feed cultures every day, replacing the compounds until day 8 post-infection. Cells were fixed with 4% PFA, permeabilized with 1% Triton X-100, blocked with 2% BSA, and stained with DAPI and PvUIS4 antibodies to detect schizonts and hypnozoites forms by confocal microscopy. For antibody dilutions, PvUIS4 (kind gift from Dr. Noah Sather, Seattle Children’s Research Institute) was diluted 1:250 and the secondary antibody was anti-mouse AlexaFluor-594 (Cat # A-11005; RRID: AB_2534073) diluted 1:1000. DAPI was diluted 1:2000. The images were processed, analyzed and outlier cells were removed using IMARIS (Bitplane Inc.) image analysis software.

[4] = tested on: HepG2 cells; assay: HepG2 cytotoxicity assay (Live/Dead staining); settings: for Percentage of live HepG2 cells compared with diluent controls: replicates
Method: Therefore, we assessed cytotoxicity in the human hepatoma HepG2 cell line. We required a PvNMT to HsNMT SI > 20 for further screening. HepG2 cells were exposed to the compounds at concentrations ranging from 1 to 20 µM for […], and toxicity was assessed via live-dead staining.
The viability of the HepG2 cell line following exposure to the compounds was determined by a Live/Dead cell assay kit (Invitrogen). Briefly, cells were added to a 96-well plate at a concentration of 5000 cells per well, excluding the exterior wells. Cells were exposed to the compounds at different concentrations ranging from 1 to 20 µM. Cells were washed every 24 h and supplemented with fresh doses of compounds. At 72 h post-treatment, 1 µM calcein-AM and 1 µM ethidium homodimer were added to the wells and incubated for 10 min at 37 °C. After washing with PBS, the cells were visualized with fluorescent microscopy (Keyence BZ-X700).

[5] = PvNMT IC50, mean of two or more determinations
[6] = read-out: PvNMT IC50, mean of two or more determinations
[7] = read-out: HsNMT IC50, mean of two or more determinations

PvNMT, sequence (A5K1A2 entry or part of it): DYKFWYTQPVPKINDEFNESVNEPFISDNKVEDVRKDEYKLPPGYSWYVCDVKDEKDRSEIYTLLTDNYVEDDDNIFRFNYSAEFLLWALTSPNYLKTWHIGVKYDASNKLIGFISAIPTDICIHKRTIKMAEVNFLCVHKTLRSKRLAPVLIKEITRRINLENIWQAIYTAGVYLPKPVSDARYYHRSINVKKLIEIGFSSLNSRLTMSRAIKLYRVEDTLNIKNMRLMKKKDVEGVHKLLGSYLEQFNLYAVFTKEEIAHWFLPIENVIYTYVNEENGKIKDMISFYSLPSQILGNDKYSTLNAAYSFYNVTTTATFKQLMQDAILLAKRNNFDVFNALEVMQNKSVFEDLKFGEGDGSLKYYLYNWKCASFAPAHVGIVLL

Question: What does the source list for `Cc1nn(C)c(C)c1CCOc1ccccc1-c1ccnc(N2CCNCC2)c1` [Compound 12c]?
Answer: IC50 [1]: 0.599 µM; IC50 [2, 5]: 0.00948 µM; SI [2]: 63.1

Question: `c1cncc(CCOc2cccnc2-c2ccnc(N3CCNCC3)c2)c1` [Compound 12h] was tested. Which IC50 [2, 5] did it give?
Answer: The IC50 was 0.441 µM.

Question: `c1cncc(CCOc2ccccc2-c2cccc(N3CCNCC3)c2)c1` [Compound 12i] was tested. Which IC50 [2, 5] did it give?
Answer: The IC50 was 1.54 µM.

Question: `Fc1ccc(-c2cccc(N3CCNCC3)c2)c(OCCc2cccnc2)c1` [Compound 12k] was tested. Which IC50 [2, 5] did it give?
Answer: Its IC50 is 3.12 µM.

Question: With `Cc1n[nH]c(C)c1CCOc1cccnc1-c1cccc(N2CCNCC2)c1` [Compound 12m] as the compound, how does the IC50 [2, 5] read?
Answer: Its IC50 is 12.5 µM.

Question: For `Cc1n[nH]c(C)c1CCOc1ccccc1-c1ccnc(N2CCNCC2)c1` [Compound 12n], which IC50 [1] is on record?
Answer: Its IC50 is 39.7 µM.

Question: And the IC50 [2, 5]?
Answer: The IC50 was 0.604 µM.

Question: What about the SI [2] of the same compound?
Answer: Its SI is 65.7.

Question: How did the IC50 [2, 6] turn out when `Cc1n[nH]c(C)c1CCOc1cccnc1-c1ccnc(N2CCNCC2)c1` [Compound 12o] was run?
Answer: Its IC50 is 3.12 µM.

Question: How did the IC50 [1] turn out when `Cc1n[nH]c(C)c1CCOc1cc(F)ccc1-c1cccc(N2CCNCC2)c1` [Compound 12p] was run?
Answer: Its IC50 is 23.1 µM.

Question: What about the IC50 [2, 5] of the same compound?
Answer: Its IC50 is 0.368 µM.

Question: And the SI [2]?
Answer: The SI was 62.7.

Question: Which IC50 [2, 5] does the source give for `Cc1nn(C)c(C)c1CCOc1ccccc1-c1cc(N2CCNCC2)ncn1` [Compound 16a] here?
Answer: The IC50 was 9.39 µM.

Question: With `Cc1nn(C)c(C)c1CCOc1cc(F)ccc1-c1cc(N2CCNCC2)ncn1` [Compound 16b] as the compound, how does the IC50 [1, 7] read?
Answer: Its IC50 is 27.6 µM.

Question: And the SI [2]?
Answer: The SI was 164 and 164.4.

Question: And the IC50 [2, 6]?
Answer: Its IC50 is 0.168 µM.

Question: For `Fc1ccc(-c2cc(N3CCNCC3)ncn2)c(OCCc2cccnc2)c1` [Compound 16d], which IC50 [2, 5] is on record?
Answer: The IC50 was 3.39 µM.

Question: How did the IC50 [2, 6] turn out when `Cc1n[nH]c(C)c1CCOc1cc(F)ccc1-c1cc(N2CCNCC2)ncn1` [Compound 16e] was run?
Answer: Its IC50 is 5.07 µM.

Question: `Cc1n[nH]c(C)c1CCOc1ccccc1-c1cc(N2CCNCC2)ncn1` [Compound 16f] was tested. Which IC50 [2, 5] did it give?
Answer: Its IC50 is 14 µM.

Question: How did the IC50 [2, 5] turn out when `Cc1nn(C)c(C)c1CCOc1cccnc1-c1cccc(OCCN(C)C)c1` [Compound 26a] was run?
Answer: Its IC50 is 0.266 µM.

Question: Which IC50 [2, 5] does the source give for `CN(C)CCOc1cccc(-c2ncccc2OCCc2cccnc2)c1` [Compound 26d] here?
Answer: Its IC50 is 14.8 µM.

Question: How did the IC50 [2, 5] turn out when `CN(C)CCOc1cccc(-c2ccccc2OCCc2cccnc2)c1` [Compound 26e] was run?
Answer: The IC50 was 12.8 µM.

Question: Which IC50 [1, 7] does the source give for `CN(C)CCOc1cccc(-c2ccc(F)cc2OCCc2cccnc2)c1` [Compound 26f] here?
Answer: The IC50 was greater than 40 µM.

Question: What about the IC50 [2, 6] of the same compound?
Answer: The IC50 was 0.622 µM.

Question: `Cc1n[nH]c(C)c1CCOc1cccnc1-c1cccc(OCCN(C)C)c1` [Compound 26g] was tested. Which IC50 [2, 5] did it give?
Answer: Its IC50 is 19.4 µM.

Question: How did the IC50 [2, 5] turn out when `Cc1n[nH]c(C)c1CCOc1ccccc1-c1cccc(OCCN(C)C)c1` [Compound 26h] was run?
Answer: The IC50 was 1.56 µM.

Question: How did the IC50 [2, 5] turn out when `Cc1nn(C)c(C)c1CCOc1ccc2ccccc2c1-c1cccc(OCCN(C)C)c1` [Compound 30b] was run?
Answer: The IC50 was 19.8 µM.

Question: How did the IC50 [2, 5] turn out when `CN(C)CCOc1cccc(-c2c(OCCc3cccnc3)ccc3ccccc23)c1` [Compound 30d] was run?
Answer: The IC50 was 7.21 µM.

Question: How did the IC50 [2, 5] turn out when `Cc1n[nH]c(C)c1CCOc1ccc2ccccc2c1-c1ccnc(N2CCNCC2)c1` [Compound 30e] was run?
Answer: The IC50 was 2.88 µM.

Question: Which IC50 [2, 5] does the source give for `Cc1n[nH]c(C)c1CCOc1ccc2ccccc2c1-c1cccc(OCCN(C)C)c1` [Compound 30f] here?
Answer: Its IC50 is 25.4 µM.

Question: `CS(=O)(=O)c1ccc(-c2cnc(N)c(-c3ccc(C(F)(F)F)nc3)c2)cc1` [MMV390048, reference compound] was tested. Which “Number of liverstage Schizonts per well” value ([3]; isolate 2, technical replicates (Fig. 5b)) did it give?
Answer: Its value is 0 per well and 1 per well (2×).

Question: What about the “Number of liverstage Schizonts per well” value ([3]; isolate 3, technical replicates (Fig. 5b)) of the same compound?
Answer: Its value is 2 per well and 1 per well.

Question: And the “number of schizonts per well (in words)” value ([3]; positive control)?
Answer: The value was “dramatically reduced the number of schizonts per well”.

Question: Which “Percentage of live HepG2 cells compared with diluent controls” value (“Percentage of live HepG2 cells” below) ([4]; 1 μM) does the source give for `CN[C@@H]1C[C@H]2O[C@@](C)([C@@H]1OC)n1c3ccccc3c3c4c(c5c6ccccc6n2c5c31)C(=O)NC4` [staurosporine, Staurosporine, reference compound] here?
Answer: The value was 95.8547% and 101.587%.

Question: What about the “Percentage of live HepG2 cells” value ([4]; 2.5 μM) of the same compound?
Answer: The value was 98.2188% and 92.7655%.

Question: What about the “Percentage of live HepG2 cells” value ([4]; 5 μM) of the same compound?
Answer: The value was 90.1576% and 84.8522%.

Question: And the “Percentage of live HepG2 cells” value ([4]; 10 μM)?
Answer: Its value is 76.1985% and 71.2598%.

Question: What about the “Percentage of live HepG2 cells” value ([4]; 20 μM) of the same compound?
Answer: The value was 50.831% and 59.1843%.

Question: What about the “HepG2 cell viability (in words)” value ([4]; at 10–20 µM, positive control) of the same compound?
Answer: Its value is “reduced the cell viability”.
